The test system of the test is left atrial muscle. Description: Test Method 1: enhancement of contracting force of left atrial muscle extirpated from a guinea pig (electrically stimulated at 1 Hz). Format: cell-based. To be noted: Krebs-Henseleit solution 32° C.; for EC20: read-out: EC20 (molar concentration for enhancing the left atrial muscle contracting force to the level of 20%); for EC50: read-out: EC50 (molar concentration for enhancing the left atrial muscle contracting force to the level of 50%); for EC100: read-out: EC100 (molar concentration for enhancing the left atrial muscle contracting force to the level of 100%). The protocol:
The drug according to the present invention was evaluated with reference to the physiological activities by means of a method using an atrial muscle extirpated from a guinea pig.
Male guinea pigs having a body weight of 300-500 g were made swooned by striking his head and were bleeded to death. The heart was extirpated and the right and left atrial muscles were cut off. The tops of each atrial muscle were fixed with cerrefines. The muscle was suspended into an organ-bath in which a Krebs-Henseleit solution (at 32° C.) was filled, and a 95% O2 -5% CO2 gas was flown through the bath. The left atrial muscle was stimulated electrically at a frequency of 1 Hz to stabilize the contracting force of the left atrial muscle. Then, the compounds according to the present invention represented by the general formulae were added to the organ-bath. As for the right atrial muscle, after the pulsation was stabilized, the compounds according to the present invention were added in the organ-bath in the same manner as described above.
The compounds according to the present invention represented by the aforementioned general formulae enhanced the left atrial muscle contracting force dependent on their concentrations. The drug concentrations for enhancing the left atrial muscle contracting force to the levels of 20%, 50% and 100%, respectively are listed in Table 2. EC20, EC50 and EC100 indicate the molar concentration for enhancing the left atrial muscle contracting force to the levels of 20%, 50% and 100%, respectively. The enhancing rates of the pulsation of the right atrial muscle are also listed within parentheses. The minus values in parentheses indicate that the pulsation of the right atrial muscle is decreased.
As a control drug, theophylline ([…].

Like-named read-outs stand apart in the source and are kept apart here.

Here are results for 32 compounds from US5081121A, “4(1H)-quinolone derivatives” (priority 1988, dated 1992).

With `COc1cc2[nH]ccc(=O)c2cc1OC` [Compound 6, 6,7-dimethoxy-4(1H)-quinolone], for the setting “Cavia porcellus”, the EC20 is 10 µM, the EC50 was determined as 35.5 µM and the EC100 was determined as 234 µM.

Regarding `CCOc1cc2[nH]ccc(=O)c2cc1OCC` [Compound 10, 6,7-diethoxy-4(1H)-quinolone], under “Cavia porcellus”, the EC20 came to 1.88 µM, the EC50 came to 19.3 µM and the EC100 came to 116 µM.

Consider `COc1cc(SC)c2[nH]ccc(=O)c2c1` [Compound 30, 6-methoxy-8-methylsufenyl-4(1H)-quinolone], for which, for the setting “Cavia porcellus”, the EC20 amounted to 6.92 µM, the EC50 came to 78.5 µM and the EC100 came to 881 µM.

With `CC(=O)c1cccc2c(=O)cc[nH]c12` [Compound 44, 8-acetyl-4(1H)-quinolone], under “Cavia porcellus”, the EC20 was < 100 µM, the EC50 was 136 µM and the EC100 stood at 776 µM.

`N#CCc1ccc2[nH]ccc(=O)c2c1` [Compound 45, 6-cyanomethyl-4(1H)-quinolone]: for the setting “Cavia porcellus”, the EC20 was < 100 µM, the EC50 was found to be 274 µM and the EC100 worked out at 510 µM.

As for `CCOc1cc(OC)cc2c(=O)cc[nH]c12` [Compound 47, 8-ethoxy-6-methoxy-4(1H)-quinolone], for the setting “Cavia porcellus”, the EC20 was < 100 µM, the EC50 was < 100 µM and the EC100 is 200 µM.

With `CCOc1cc2c(=O)cc[nH]c2cc1OC` [Compound 48, 6-ethoxy-7-methoxy-4(1H)-quinolone], under “Cavia porcellus”, the EC20 is 12.6 µM, the EC50 came out at 106 µM and the EC100 came to 646 µM.

Regarding `C=CCOc1cc2[nH]ccc(=O)c2cc1OC` [Compound 53, 7-allyloxy-6-methoxy-4(1H)-quinolone], for the setting “Cavia porcellus”, the EC20 is < 100 µM, the EC50 was determined as 117 µM and the EC100 was determined as 240 µM.

Turning to `COCCOc1cc2[nH]ccc(=O)c2cc1OC` [Compound 55, 6-methoxy-7-(2-methoxy)ethoxy-4(1H)-quinolone], for the setting “Cavia porcellus”, the EC20 worked out at 132 µM and the EC50 worked out at 394 µM.

Regarding `COCOc1cc2[nH]ccc(=O)c2cc1OC` [Compound 56, 6-methoxy-7-methoxymethoxy-4(1H)-quinolone], where the note is “Cavia porcellus”, the EC20 came out at 114 µM and the EC50 stood at 405 µM.

On to `CCn1ccc(=O)c2ccc(C)cc21` [Compound 57, 1-ethyl-7-methyl-4(1H)-quinolone], for which, where the note is “Cavia porcellus”, the EC20 is < 100 µM and the EC50 came to 248 µM.

As for `CCn1ccc(=O)c2cc3c(cc21)OCO3` [Compound 60, 1-ethyl-6,7-methylenedioxy-4(1H)-quinolone], under “Cavia porcellus”, the EC20 was < 100 µM and the EC50 is 279 µM.

`CCn1ccc(=O)c2c(O)ccc(C)c21` [Compound 61, 1-ethyl-5-hydroxy-8-methyl-4(1H)-quinolone]: for the setting “Cavia porcellus”, the EC20 is < 100 µM and the EC50 came out at 107 µM.

As for `CCn1ccc(=S)c2cc3c(cc21)OCO3` [Compound 63], under “Cavia porcellus”, the EC20 turned out to be 42.2 µM and the EC50 amounted to 112 µM.

Consider `O=c1cc[nH]c2ccc(CCO)cc12` [Compound 64, 6-(2-hydroxy)ethyl-4(1H)-quinolone], for which, under “Cavia porcellus”, the EC20 was found to be 157 µM, the EC50 was determined as 234 µM and the EC100 is 495 µM.

Consider `CCOC(=O)c1ccc2[nH]ccc(=O)c2c1` [Compound 65, 6-ethoxycarbonyl-4(1H)-quinolone], for which, for the setting “Cavia porcellus”, the EC20 was < 100 µM and the EC50 was determined as 345 µM.

For the compound `O=c1cc[nH]c2cc(N3CCNCC3)ccc12` [Compound 67, 7-piperazinyl-4(1H)-quinolone], for the setting “Cavia porcellus”, the EC20 was 46.8 µM, the EC50 was found to be 211 µM and the EC100 was determined as 944 µM.

`CCCCn1ccc(=O)c2cc(OC)c(OCC)cc21` [Compound 68, 1-n-butyl-7-ethoxy-6-methoxy-4(1H)-quinolone]: under “Cavia porcellus”, the EC20 came to 2.82 µM and the EC50 amounted to 19.5 µM.

Regarding `CCOc1cc2c(cc1OC)c(=O)ccn2CC(C)C` [Compound 69, 1-i-butyl-7-ethoxy-6-methoxy-4(1H)-quinolone], for the setting “Cavia porcellus”, the EC20 is 4.32 µM and the EC50 was found to be 462 µM.

On to `C=CCc1cccc2c(=O)cc[nH]c12` [Compound 70, 8-(2-propenyl)-4(1H)-quinolone], for which, under “Cavia porcellus”, the EC20 was < 100 µM and the EC50 was determined as 159 µM.

Turning to `Cc1cc(Cl)cc2c(=O)cc[nH]c12` [Compound 71, 6-chloro-8-methyl-4(1H)-quinolone], under “Cavia porcellus”, the EC20 was 12.3 µM and the EC50 was determined as 54.3 µM.

Turning to `C/C=C/Cc1c(O)c(OC)cc2c(=O)cc[nH]c12` [Compound 72, 8-(2-trans-butenyl)-7-hydroxy-6-methoxy-4(1H)-quinolone], the “EC20 (molar concentration for enhancing the left atrial muscle contracting force to the level of 20%)” value is 35.5 µM, the “EC100 (molar concentration for enhancing the left atrial muscle contracting force to the level of 100%)” value amounted to 211 µM and the EC50 came to 63.1 µM.

In the case of `CCn1ccc(=O)c2cc(OC)ccc21` [Compound 73, 1-ethyl-6-methoxy-4(1H)-quinolone], where the note is “Cavia porcellus”, the EC20 was < 100 µM, the EC50 was determined as 115 µM and the EC100 is 241 µM.

With `CCOc1ccc2c(c1)c(=O)ccn2CC` [Compound 74, 6-ethoxy-1-ethyl-4(1H)-quinolone], under “Cavia porcellus”, the EC20 is < 100 µM, the EC50 worked out at 108 µM and the EC100 is 546 µM.

For the compound `CCOC(=O)c1c[nH]c2c(OC)cc(OCC)cc2c1=O` [Compound 76, 6-ethoxy-3-ethoxycarbonyl-8-methoxy-4(1H)-quinolone], for the setting “Cavia porcellus”, the EC20 was determined as 38.9 µM, the EC50 was found to be 73.3 µM and the EC100 stood at 305 µM.

For `CCOC(=O)c1cn(CC)c2c(OC)cc(OCC)cc2c1=O` [Compound 77, 6-ethoxy-3-ethoxycarbonyl-1-ethyl-8-methoxy-4(1H)-quinolone], where the note is “Cavia porcellus”, the EC20 was found to be 4.73 µM and the EC50 was determined as 50.1 µM.

For `CCOCCOC(=O)c1c[nH]c2c(OC)ccc(OCC)c2c1=O` [Compound 79, 5-ethoxy-3-[(2-ethoxy)ethoxycarbonyl]-8-methoxy-4(1H)-quinolone], for the setting “Cavia porcellus”, the EC20 was < 100 µM, the EC50 is 135 µM and the EC100 came out at 680 µM.

As to `CCOC(=O)c1cn(CC)c2c(C)ccc(OC(C)=O)c2c1=O` [Compound 82, 5-acetoxy-3-ethoxycarbonyl-1-ethyl-8-methyl-4(1H)-quinolone], for the setting “Cavia porcellus”, the EC20 was < 100 µM and the EC50 came to 168 µM.

For the compound `CCOC(=O)c1c[nH]c2c(S(=O)(=O)c3ccccc3)cccc2c1=O` [Compound 83, 3-ethoxycarbonyl-8-phenylsulfonyl-4(1H)-quinolone], for the setting “Cavia porcellus”, the EC20 was 19.5 µM and the EC50 turned out to be 363 µM.

On to `CCn1cc(C(=O)O)c(=O)c2c(C)cccc21` [Compound 87, 3-carboxyl-1-ethyl-5-methyl-4(1H)-quinolone], for which, for the setting “Cavia porcellus”, the EC20 was < 100 µM and the EC50 was determined as 327 µM.

Take `CCOc1cc2c(=O)c(C(=O)O)cn(CC)c2c(C)c1C` [Compound 88, 3-carboxyl-7,8-dimethyl-6-ethoxy-1-ethyl-4(1H)-quinolone]: where the note is “Cavia porcellus”, the EC20 is < 100 µM, the EC50 was determined as 202 µM and the EC100 is 856 µM.

Consider `COc1cc2c(=O)c(C(=O)O)cn(C)c2c(C)c1C` [Compound 89, 3-carboxyl-6-methoxy-1,7,8-trimethyl-4(1H)-quinolone], for which, where the note is “Cavia porcellus”, the EC20 was < 100 µM and the EC50 was 657 µM.
